Literature values, collected in US6432967B1 (Mayo Foundation for Medical Education & Research, priority 1995, dated 2002).

Details: in vivo

fecal excretion: approximately 25%
Structure (SMILES): Nc1ccc(O)c(C(=O)O)c1 [5-ASA, 5-aminosalicylate]
